Consider 27 compounds from patent US20180162862A1 (President and Fellows of Harvard College, priority 2015, published 2018).

Converted amounts (≈) assume the structure as drawn. Where two headings read alike, the source gives them in different places.

The subject of assay [1] is S. aureus ATCC 29213. Kind of assay: MIC test according to CLSI M7-A9, S. aureus ATCC 29213. Format: cell-based. To be noted: Staphylococcus aureus, read-out: S. aureus ATCC 29213 MIC at 24 h. The protocol:
(§1) MIC Test (S. aureus ATCC 29213, S. aureus ATCC 43300 and S. aureus Newman)
(§2) Susceptibility testing of S. aureus ATCC 29213, ATCC 43300 and Newman was performed according to Clinical Laboratory Standard Institute (CLSI) guidelines M7-A9. Test articles were stored at room temperature prior to use, then dissolved in filtered sterile DMSO. Stock DMSO solutions were diluted further in cation-adjusted Mueller Hinton broth (CAMHB) to provide appropriate test concentrations. Cultures of S. aureus (ATCC 29213, ATCC 43300 or Newman) were added in accordance with CLSI guidelines and plates incubated at 37° C. in air for 24 h. Endpoints were determined visually (and by spectrophotometer at 600 nm) and the minimum inhibitory concentration (MIC) defined as the lowest concentration of test articles resulting in complete inhibition of visible bacterial growth. Results are detailed in Table 2 (S. aureus ATCC 29213 and ATCC 43300) and Table 3 (S. aureus ATCC 29213, ATCC 43300 and Newman).

Assay [2] relates to S. aureus ATCC 43300. Kind of assay: MIC test according to CLSI M7-A9, S. aureus ATCC 43300. The format is cell-based. To be noted: Staphylococcus aureus, read-out: S. aureus ATCC 43300 MIC at 24 h. The protocol: as §1, §2
[3] abbreviates: ATCC29213, CLSI M7-A9, CAMHB, 24 h (Table 2).
[4] abbreviates: ATCC43300, CLSI M7-A9, CAMHB, 24 h (Table 2).

As usually defined, the MIC is the lowest concentration found to suppress growth.

With `CN1CCN(c2nc(-c3ccc(C(C)(C)C)cc3)nc3cc(=O)[nH]n23)CC1` [Example 18, 2-(4-tert-butylphenyl)-4-(4-methylpiperazin-1-yl)-6H,7H-pyrazolo[1,5-a][1,3,5]triazin-7-one], the MIC in assay [1] (setting [3]) and in assay [2] (setting [4]) was 64 µg/mL (≈ 175 µM) each time.
For the compound `CC(C)(C)c1ccc(-c2nc(N3CCC(O)CC3)n3[nH]c(=O)cc3n2)cc1` [Example 20, 2-(4-tert-butylphenyl)-4-(4-hydroxypiperidin-1-yl)-6H,7H-pyrazolo[1,5-a][1,3,5]triazin-7-one], the MIC was 64 µg/mL (≈ 174 µM) in assay [1] (setting [3]) and 128 µg/mL (≈ 348 µM) in assay [2] (setting [4]).
`CC(C)(C)c1ccc(-c2nc(N3CCC(OCc4ccccc4)CC3)n3[nH]c(=O)cc3n2)cc1` [Example 21, 4-[4-(benzyloxy)piperidin-1-yl]-2-(4-tert-butylphenyl)-6H,7H-pyrazolo[1,5-a][1,3,5]triazin-7-one]: the MIC in assay [1] (setting [3]) is 32 µg/mL (≈ 69.9 µM); in assay [2] (setting [4]) it was over 128 µg/mL.
Consider `CC(C)(C)c1ccc(-c2nc(NCCCO)n3[nH]c(=O)cc3n2)cc1` [Example 22, 2-(4-tert-butylphenyl)-4-[(3-hydroxypropyl)amino]-6H,7H-pyrazolo[1,5-a][1,3,5]triazin-7-one], for which the MIC in assay [1] (setting [3]) was determined as 8 µg/mL (≈ 23.4 µM); in assay [2] (setting [4]), 32 µg/mL (≈ 93.7 µM).
As to `CC(C)(C)c1ccc(-c2nc(NCCCc3ccccc3)n3[nH]c(=O)cc3n2)cc1` [Example 23, 2-(4-tert-butylphenyl)-4-[(3-phenylpropyl)amino]-6H,7H-pyrazolo[1,5-a][1,3,5]triazin-7-one], the MIC in assay [1] (setting [3]) and in assay [2] (setting [4]) was 4 µg/mL (≈ 9.96 µM) throughout.
On to `CC(C)(C)c1ccc(-c2nc(NCCCn3ccnc3)n3[nH]c(=O)cc3n2)cc1` [Example 24, 2-(4-tert-butylphenyl)-4-{[3-(1H-imidazol-1-yl)propyl]amino}-6H,7H-pyrazolo[1,5-a][1,3,5]triazin-7-one], for which the minimum inhibitory concentration (MIC) in assay [1] (ATCC29213, 24 h) worked out at 64 µg/mL (≈ 163 µM); in assay [2] (ATCC43300, 24 h) it was 64 µg/mL (≈ 163 µM).
As to `CN(C)CCNc1nc(-c2ccc(C(C)(C)C)cc2)nc2cc(=O)[nH]n12` [Example 25, 2-(4-tert-butylphenyl)-4-{[2-(dimethylamino)ethyl]amino}-6H,7H-pyrazolo[1,5-a][1,3,5]triazin-7-one], the figures for the MIC in assay [1] (setting [3]) and in assay [2] (setting [4]) were 64 µg/mL (≈ 181 µM) and 32 µg/mL (≈ 90.3 µM), respectively.
With `CC(C)(O)CNc1nc(-c2ccc(C(C)(C)C)cc2)nc2cc(=O)[nH]n12` [Example 26, 2-(4-tert-butylphenyl)-4-[(2-hydroxy-2-methylpropyl)amino]-6H,7H-pyrazolo[1,5-a][1,3,5]triazin-7-one], the MIC in assay [1] (setting [3]) and in assay [2] (setting [4]) was 32 µg/mL (≈ 90 µM) each time.
As for `CN(C)c1nc(-c2ccc(C(C)(C)C)cc2)nc2cc(=O)[nH]n12` [Example 32, 2-(4-tert-butylphenyl)-4-(dimethylamino)-6H,7H-pyrazolo[1,5-a][1,3,5]triazin-7-one], the MIC in assay [1] (setting [3]) was over 32 µg/mL; in assay [2] (setting [4]), 32 µg/mL (≈ 103 µM).
Consider `CC(C)(C)c1ccc(-c2nc(NCCCOc3ccccc3)n3[nH]c(=O)cc3n2)cc1` [Example 33, 2-(4-tert-butylphenyl)-4-[(3-phenoxypropyl)amino]-6H,7H-pyrazolo[1,5-a][1,3,5]triazin-7-one], for which the MIC in assay [1] (setting [3]) and in assay [2] (setting [4]) was 8 µg/mL (≈ 19.2 µM) each time.
In the case of `CCCCN(C)c1nc(-c2ccc(C(C)(C)C)cc2)nc2cc(=O)[nH]n12` [Example 34, 4-[butyl(methyl)amino]-2-(4-tert-butylphenyl)-6H,7H-pyrazolo[1,5-a][1,3,5]triazin-7-one], the MIC in assay [1] (setting [3]) and in assay [2] (setting [4]) was 16 µg/mL (≈ 45.3 µM) throughout.
`CC(C)(C)c1ccc(-c2nc(NC3CCN(Cc4ccccc4)CC3)n3[nH]c(=O)cc3n2)cc1` [Example 35, 4-[(1-benzylpiperidin-4-yl)amino]-2-(4-tert-butylphenyl)-6H,7H-pyrazolo[1,5-a][1,3,5]triazin-7-one]: the MIC in assay [1] (setting [3]) and in assay [2] (setting [4]) was 8 µg/mL (≈ 17.5 µM) in each case.
Turning to `CC(C)(C)c1ccc(-c2nc(NC3CCCCC3)n3[nH]c(=O)cc3n2)cc1` [Example 36, 2-(4-tert-butylphenyl)-4-(cyclohexylamino)-6H,7H-pyrazolo[1,5-a][1,3,5]triazin-7-one], the MIC in assay [1] (setting [3]) and in assay [2] (setting [4]) was 8 µg/mL (≈ 21.9 µM) each time.
With `CC(C)(C)c1ccc(-c2nc(NCCCNC3CCCCC3)n3[nH]c(=O)cc3n2)cc1` [Example 39, 2-(4-tert-butylphenyl)-4-{[3-(cyclohexylamino)propyl]amino}-6H,7H-pyrazolo[1,5-a][1,3,5]triazin-7-one], the MIC in assay [1] (setting [3]) and in assay [2] (setting [4]) was 32 µg/mL (≈ 75.7 µM) in each case.
`CC(C)(C)c1ccc(-c2nc(NCCCN3CCC(O)CC3)n3[nH]c(=O)cc3n2)cc1` [Example 40, 2-(4-tert-butylphenyl)-4-{[3-(4-hydroxypiperidin-1-yl)propyl]amino}-6H,7H-pyrazolo[1,5-a][1,3,5]triazin-7-one]: the MIC in assay [1] (setting [3]) and in assay [2] (setting [4]) was 128 µg/mL (≈ 301 µM) throughout.
Regarding `CC(C)(C)c1ccc(-c2nc(NCCCN3CCOCC3)n3[nH]c(=O)cc3n2)cc1` [Example 41, 2-(4-tert-butylphenyl)-4-{[3-(morpholin-4-yl)propyl]amino}-6H,7H-pyrazolo[1,5-a][1,3,5]triazin-7-one], the MIC in assay [1] (setting [3]) and in assay [2] (setting [4]) was 128 µg/mL (≈ 312 µM) each time.
In the case of `CC(C)(C)c1ccc(-c2nc(NCCCNC3Cc4ccccc4C3)n3[nH]c(=O)cc3n2)cc1` [Example 42, 2-(4-tert-butylphenyl)-4-({3-[(2,3-dihydro-1H-inden-2-yl)amino]propyl}amino)-6H,7H-pyrazolo[1,5-a][1,3,5]triazin-7-one], the MIC in assay [1] (setting [3]) and in assay [2] (setting [4]) was 8 µg/mL (≈ 17.5 µM) each time.
Consider `CC(C)(C)c1ccc(-c2nc(NCCCNc3ccccc3)n3[nH]c(=O)cc3n2)cc1` [Example 43, 2-(4-tert-butylphenyl)-4-{[3-(phenylamino)propyl]amino}-6H,7H-pyrazolo[1,5-a][1,3,5]triazin-7-one], for which the MIC in assay [1] (setting [3]) and in assay [2] (setting [4]) was 8 µg/mL (≈ 19.2 µM) each time.
With `CC(C)(C)c1ccc(-c2nc(NCCCN3Cc4ccccc4C3)n3[nH]c(=O)cc3n2)cc1` [Example 44, 2-(4-tert-butylphenyl)-4-{[3-(2,3-dihydro-1H-isoindol-2-yl)propyl]amino}-6H,7H-pyrazolo[1,5-a][1,3,5]triazin-7-one], the MIC in assay [1] (setting [3]) was 64 µg/mL (≈ 145 µM); in assay [2] (setting [4]), over 128 µg/mL.
For the compound `CC(C)(C)c1ccc(-c2nc(NCCCOc3cnccn3)n3[nH]c(=O)cc3n2)cc1` [Example 50, 2-(4-tert-butylphenyl)-4-{[3-(pyrazin-2-yloxy)propyl]amino}-6H,7H-pyrazolo[1,5-a][1,3,5]triazin-7-one], the MIC in assay [1] (setting [3]) and in assay [2] (setting [4]) was over 32 µg/mL each time.
With `CC(C)(C)c1ccc(-c2nc(NCCCn3ccncc3=O)n3[nH]c(=O)cc3n2)cc1` [Example 51, 1-(3-{[2-(4-tert-butylphenyl)-7-oxo-6H,7H-pyrazolo[1,5-a][1,3,5]triazin-4-yl]amino}propyl)-1,2-dihydropyrazin-2-one], the MIC in assay [1] (setting [3]) and in assay [2] (setting [4]) was over 64 µg/mL each time.
For the compound `Cc1cc(NC2CCN(c3nc(-c4ccc(C(C)(C)C)cc4)nc4cc(=O)[nH]n34)CC2)ccc1Cl` [Example 54, 2-(4-tert-butylphenyl)-4-{4-[(4-chloro-3-methylphenyl)amino]piperidin-1-yl}-6H,7H-pyrazolo[1,5-a][1,3,5]triazin-7-one], the MIC in assay [1] (setting [3]) and in assay [2] (setting [4]) was 4 µg/mL (≈ 8.15 µM) each time.
Regarding `Cc1ncc(CN2CCC(Nc3nc(-c4ccc(C(C)(C)C)cc4)nc4cc(=O)[nH]n34)CC2)[nH]1` [Example 55, 2-(4-tert-butylphenyl)-4-({1-[(2-methyl-1H-imidazol-5-yl)methyl]piperidin-4-yl}amino)-6H,7H-pyrazolo[1,5-a][1,3,5]triazin-7-one], the MIC in assay [1] (setting [3]) and in assay [2] (setting [4]) was 32 µg/mL (≈ 69.5 µM) throughout.
For `CC(C)(C)c1ccc(-c2nc(NC3CCC(NCc4ccccc4)CC3)n3[nH]c(=O)cc3n2)cc1` (stereo not drawn) [Example 56, 4-{[4-(benzylamino)cyclohexyl]amino}-2-(4-tert-butylphenyl)-6H,7H-pyrazolo[1,5-a][1,3,5]triazin-7-one], the MIC in assay [1] (setting [3]) was 16 µg/mL (≈ 34 µM); in assay [2] (setting [4]), 8 µg/mL (≈ 17 µM).
For the compound `Cc1cc(NCC2CN(c3nc(-c4ccc(C(C)(C)C)cc4)nc4cc(=O)[nH]n34)C2)ccc1Cl` [Example 57, 2-(4-tert-butylphenyl)-4-(3-{[(4-chloro-3-methylphenyl)amino]methyl}azetidin-1-yl)-6H,7H-pyrazolo[1,5-a][1,3,5]triazin-7-one], the MIC in assay [1] (setting [3]) stood at 4 µg/mL (≈ 8.39 µM); in assay [2] (setting [4]), 8 µg/mL (≈ 16.8 µM).
With `Cc1ccc(S(=O)(=O)CCCNc2nc(-c3ccc(C(C)(C)C)cc3)nc3cc(=O)[nH]n23)cc1C` [Example 58, 2-(4-tert-butylphenyl)-4-{[3-(3,4-dimethylbenzenesulfonyl)propyl]amino}-6H,7H-pyrazolo[1,5-a][1,3,5]triazin-7-one], the MIC in assay [1] (setting [3]) and in assay [2] (setting [4]) was 64 µg/mL (≈ 130 µM) each time.
On to `Cc1cc(OCC(O)CNc2nc(-c3ccc(C(C)(C)C)cc3)nc3cc(=O)[nH]n23)ccc1Cl` (stereo not drawn) [Example 60, 2-(4-tert-butylphenyl)-4-{[3-(4-chloro-3-methylphenoxy)-2-hydroxypropyl]amino}-6H,7H-pyrazolo[1,5-a][1,3,5]triazin-7-one], for which the MIC in assay [1] (setting [3]) amounted to 4 µg/mL (≈ 8.3 µM); in assay [2] (setting [4]), 8 µg/mL (≈ 16.6 µM).
